Like-named read-outs stand apart in the source and are kept apart here.

This note sets out measurements from US6492374B2, “Benzofuran derivatives, their preparation and use” (H. Lundbeck A/S, priority 1998, dated 2002).

Assay [1] concerns the target T1, cloned human 5-HT1A receptors (Homo sapiens, UniProt P08908).
T1 construct: expressed in transfected cells; host or cells: HeLa cells (HA7), stably transfected; cell homogenate
T1 sequence (P08908 1-422): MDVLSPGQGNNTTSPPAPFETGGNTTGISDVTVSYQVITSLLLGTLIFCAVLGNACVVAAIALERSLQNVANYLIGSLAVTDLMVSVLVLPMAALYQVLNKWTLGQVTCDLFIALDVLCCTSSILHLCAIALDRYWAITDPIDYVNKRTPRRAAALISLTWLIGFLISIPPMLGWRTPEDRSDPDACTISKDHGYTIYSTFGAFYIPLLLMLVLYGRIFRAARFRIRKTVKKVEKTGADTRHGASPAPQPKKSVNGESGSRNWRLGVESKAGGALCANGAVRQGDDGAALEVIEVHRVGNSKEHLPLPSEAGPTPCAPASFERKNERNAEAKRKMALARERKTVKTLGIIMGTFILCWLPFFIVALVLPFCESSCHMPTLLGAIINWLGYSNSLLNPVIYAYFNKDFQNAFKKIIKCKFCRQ
Briefly: Inhibition of 3H-5-CT binding to human 5-HT1A receptors. The protocol: Inhibition of ^3H-5CT Binding to Human 5-HT1A Receptors
Human 5-HT1A receptors (40 μg of cell homogenate) were incubated for 15 minutes at 37° C. in 50 mM Tris buffer at pH 7.7 in the presence of ^3H-5-CT. Non-specific binding was determined by including 10 μM of metergoline. The reaction was terminated by rapid filtration through Unifilter GF/B filters on a Tomtec Cell Harvester. Filters were counted in a Packard Top Counter.

For assay [2], the system named is serotonin reuptake (3H-5-HT uptake into whole rat brain synaptosomes). Put plainly: Inhibition of 3H-5-HT uptake into rat brain synaptosomes. Format: biochemical. On the procedure: Inhibition of ^3H-5HT Uptake Into Rat Brain Synaptosomes
Using this method, the ability of drugs to inhibit the accumulation of ^3H-5-HT into whole rat brain synaptosomes is determined in vitro.

[3] abbreviates: cloned human 5-HT1A receptors expressed in HeLa cells (HA7).

For `COc1ccccc1N1CCN(CCCC2(c3ccc(F)cc3)OCc3cc(C#N)ccc32)CC1` (stereo not drawn) [Compound 2a, 1-(4-Fluorophenyl)-1-[3-[4-(2-methoxyphenyl)piperazinyl]propyl]-1,3-dihydroisobenzofuran-5-carbonitrile], the IC50 in assay [1] (setting [3]) amounted to 1 nM.
As to `COc1ccccc1OCCN(C)CCCC1(c2ccc(F)cc2)OCc2cc(C#N)ccc21` (stereo not drawn) [Compound 2b, 1-(4-Fluorophenyl)-1-[3-[[2-(2-methoxyphenoxy)ethyl]methylamino]propyl]-1,3-dihydroisobenzofuran-5-carbonitrile], the IC50 is 6.4 nM in assay [1] (setting [3]) and 40 nM in assay [2].
As for `CN(CCCCc1c[nH]c2ccccc12)CCCC1(c2ccccc2)OCc2ccccc21` (stereo not drawn) [Compound 2e, 1-[3-[[4-(1H-Indol-3-yl)butyl]methylamino]propyl]1-phenyl-1,3-dihydroisobenzofuran], the IC50 in assay [1] (setting [3]) was 38 nM; in assay [2] it was 15 nM.
As to `CN(CCCc1c[nH]c2ccccc12)CCC[C@@]1(c2ccc(F)cc2)OCc2cc(C#N)ccc21` [Compound 2f, (S)-1-[3-[[3-(1H-Indol-3-yl)propyl]methylamino]propyl]-1-(4-fluorophenyl)-1,3-dihydroisobenzofuran-5-carbonitrile], the IC50 in assay [1] (setting [3]) was 8.6 nM; in assay [2], 14 nM.
For `CN(CCCc1c[nH]c2ccccc12)CCCC1(c2ccccc2)OCc2ccccc21` (stereo not drawn) [Compound 2g, 1-[3-[[3-(1H-Indol-3-yl)propyl]methylamino]propyl]-1-phenyl-1,3-dihydroisobenzofuran] the same measures were 40 nM and 20 nM.
Turning to `CN(CCCc1cccc2c1OCCO2)CCCC1(c2ccc(F)cc2)OCc2ccccc21` (stereo not drawn) [Compound 2j, 5-[3-[[3-[1-(4-Fluorophenyl)-1,3-dihydroisobenzofuran-1-yl]propyl]methylamino]propyl]-1,4benzodioxane], the IC50 in assay [1] (setting [3]) is 41 nM; in assay [2], 9.7 nM.
Take `N#Cc1ccc2c(c1)COC2(CCCN1CCN(c2cccc3[nH]ccc23)CC1)c1ccc(F)cc1` (stereo not drawn) [Compound 2m, 1-[3-[4-(1H-Indol-4-yl)piperazinyl]propyl]-1-(4fluorophenyl)-1,3-dihydroisobenzofuran-5carbonitrile]: the IC50 in assay [1] (setting [3]) turned out to be 4.7 nM.
With `N#Cc1ccc2c(c1)COC2(CCCN1CCN(c2ccc3[nH]ccc3c2)CC1)c1ccc(F)cc1` (stereo not drawn) [Compound 2n, 1-[3-[4-(1H-Indol-5-yl)piperazinyl]propyl]-1-(4-fluorophenyl)-1,3-dihydroisobenzofuran-5-carbonitrile], the IC50 in assay [1] (setting [3]) came to 15 nM.
On the same count and under the same terms, under `N#Cc1ccc2c(c1)COC2(CCCN1CCC(c2c[nH]c3cc(Cl)ccc23)CC1)c1ccc(F)cc1` (stereo not drawn) [Compound 2o, 1-[3-[4-(6-chloro-1H-Indol-3-yl)piperidinyl]propyl]-1-(4fluorophenyl)-1,3-dihydroisobenzofuran-5-carbonitrile] stands 12 nM.
Consider `CN(CCCC1(c2ccc(F)cc2)OCc2cc(C#N)ccc21)CCc1c[nH]c2ccccc12` (stereo not drawn) [Compound 4a, 1-[3-[[2-(1H-Indol-3-yl)ethyl]methylamino]propyl]-1-(4-fluorophenyl)-1,3-dihydroisobenzofuran-5-carbonitrile], for which the IC50 in assay [1] (setting [3]) was determined as 23 nM; in assay [2], 54 nM.
As for `COc1cccc(CCN(C)CCCC2(c3ccc(F)cc3)OCc3cc(C#N)ccc32)c1` (stereo not drawn) [Compound 4b, 1-(4-Fluorophenyl)-1-[3-[[2-(3-methoxyphenyl)ethyl]methylamino]propyl]-1,3-dihydroisobenzofuran-5-carbonitrile], the IC50 in assay [1] (setting [3]) is 63 nM. Besides, in assay [2], the “Inhibition of serotonin reuptake % inhibition at 100 nM” value is 59% inh. at 100 nM.
The matching figures for `C=CCN(CCCC1(c2ccc(F)cc2)OCc2cc(C#N)ccc21)CCc1cccc(OC)c1` (stereo not drawn) [Compound 4c, 1-(4-Fluorophenyl)-1-[3-[[2-(3-methoxyphenyl)ethyl](prop-2-en-1-yl)amino]propyl]-1,3-dihydroisobenzofuran-5-carbonitrile]: 11 nM and 4% inh. at 100 nM.
For `C=CCN(CCCC1(c2ccc(F)cc2)OCc2cc(C#N)ccc21)CCc1ccccc1OC` (stereo not drawn) [Compound 4d, 1-(4-Fluorophenyl)-1-[3-[[2-(2-methoxyphenyl)ethyl](prop-2-en-1-yl)amino]propyl]-1,3-dihydroisobenzofuran-5-carbonitrile] the same measures were 4.5 nM and 7% inh. at 100 nM.
As for `COc1ccc(OC)c(CCN(C)CCCC2(c3ccc(F)cc3)OCc3cc(C#N)ccc32)c1` (stereo not drawn) [Compound 4e, 1-[3-[[2-(2,5-Dimethoxyphenyl)ethyl]methylamino]propyl]-1-(4-fluorophenyl)-1,3-dihydroisobenzofuran-5-carbonitrile], the IC50 was 17 nM in assay [1] and 160 nM in assay [2].
As to `C=CCN(CCCc1cccc(OC)c1)CCCC1(c2ccc(F)cc2)OCc2cc(C#N)ccc21` (stereo not drawn) [Compound 4l], the “Inhibition of serotonin reuptake % inhibition at 100 nM” value in assay [2] is given as 27% inh. at 100 nM.
Take `COc1ccccc1OCCCN(C)CCCC1(c2ccc(F)cc2)OCc2cc(C#N)ccc21` (stereo not drawn) [Compound 4m]: the “Inhibition of serotonin reuptake % inhibition at 100 nM” value in assay [2] is 74% inh. at 100 nM.
The same measure, in the same setting: the result for `C#CCN(CCCc1c[nH]c2ccccc12)CCCC1(c2ccc(F)cc2)OCc2cc(C#N)ccc21` (stereo not drawn) [Compound 4u, 1-[3-[[3-(1H-Indol-3-yl)propyl](prop-2-yl-1-yl)amino]propyl]-1-(4-fluorophenyl)-1,3-dihydroisobenzofuran-5-carbonitrile] reads 44% inh. at 100 nM.
Take `CN(CCCC1(c2ccc(F)cc2)OCc2cc(C#N)ccc21)CCc1c[nH]c2c(F)cccc12` (stereo not drawn) [Compound 12b, 1-[3-[[2-(7-Fluoro-1H-indol-3-yl)ethyl]methylamino]propyl]-1-(4-fluorophenyl)-1,3-dihydroisobenzofuran-5-carbonitrile]: the IC50 in assay [1] was determined as 43 nM.
As to `C=CCN(CCCc1c[nH]c2ccc(Cl)cc12)CCCC1(c2ccc(F)cc2)OCc2cc(C#N)ccc21` (stereo not drawn) [Compound 13k, 1-[3-[[3-(5-Chloro-1H-indol-3-yl)propyl](prop-2-en-1-yl)amino]propyl]-1-(4-fluorophenyl)-1,3-dihydroisobenzofuran-5-carbonitrile], the IC50 in assay [1] (setting [3]) came to 19 nM.
Same read-out and setting: under `N#Cc1ccc2c(c1)COC2(CCCN(CCCc1c[nH]c2ccccc12)CCOc1ccccc1)c1ccc(F)cc1` (stereo not drawn) [Compound 13p, 1-[3-[[3-(1H-Indol-3-yl)propyl](2-phenoxyethyl)amino]propyl]-1-(4-fluorophenyl)-1,3-dihydroisobenzofuran-5-carbonitrile] stands 23 nM; under `Cc1ccc2[nH]cc(CCN(CCCC3(c4ccc(F)cc4)OCc4cc(C#N)ccc43)CCOc3ccccc3)c2c1` (stereo not drawn) [Compound 13q, 1-[3-[[2-(5-Methyl-1H-indol-3-yl)ethyl](2-phenoxyethyl)amino]propyl]-1-(4-fluorophenyl)-1,3dihydroisobenzofuran-5-carbonitrile], 12 nM; under `N#Cc1ccc2c(c1)COC2(CCCN(CCOc1ccccc1)CCc1c[nH]c2ccc(F)cc12)c1ccc(F)cc1` (stereo not drawn) [Compound 13r, 1-[3-[[2-(5-Fluoro-1H-indol-3-yl)ethyl](2-phenoxyethyl)amino]propyl]-1-(4-fluorophenyl)-1,3-dihydroisobenzofuran-5-carbonitrile], 8.9 nM.
Consider `Cc1ccc2[nH]cc(CCCN(CCCC3(c4ccc(F)cc4)OCc4cc(C#N)ccc43)CCOc3ccccc3)c2c1` (stereo not drawn) [Compound 13t, 1-[3-[[3-(5-Methyl-1H-indol-3-yl)propyl](2-phenoxyethyl)amino]propyl]-1-(4-fluorophenyl)-1,3-dihydroisobenzofuran-5-carbonitrile], for which the IC50 in assay [1] (setting [3]) came out at 23 nM.
Regarding `N#Cc1ccc2c(c1)COC2(CCCN(CCCc1c[nH]c2ccc(F)cc12)CCOc1ccccc1)c1ccc(F)cc1` (stereo not drawn) [Compound 13u, 1-[3-[[3-(5-Fluoro-1H-indol-3-yl)propyl](2-phenoxyethyl)amino]propyl]-1-(4-fluorophenyl)-1,3-dihydroisobenzofuran-5-carbonitrile], the IC50 in assay [1] (setting [3]) came out at 22 nM.
Still for that read-out and setting: under `N#Cc1ccc2c(c1)COC2(CCCN(CCOc1ccccc1)CCc1c[nH]c2c(F)cc(F)cc12)c1ccc(F)cc1` (stereo not drawn) [Compound 13v, 1-[3-[[2-(5,7-Difluoro-1H-indol-3-yl)ethyl](2-phenoxyethyl)amino]propyl]-1-(4-fluorophenyl)-1,3-dihydroisobenzofuran-5-carbonitrile] stands 23 nM.
Still for that read-out and setting: the result for `CC(C)c1ccc2[nH]cc(CCN(CCCC3(c4ccc(F)cc4)OCc4cc(C#N)ccc43)CCOc3ccccc3)c2c1` (stereo not drawn) [Compound 13x, 1-[3-[(2-Phenoxyethyl)[2-[5-(2-propyl)-1H-indol-3-yl]ethyl]amino]propyl]-1-(4-fluorophenyl)-1,3-dihydroisobenzofuran-5-carbonitrile] reads 26 nM.

In general, IC50 refers to the concentration that gives 50% inhibition.
